In patent US11766435B2, “N3-substituted iminopyrimidinones as antimalarial agents” (Merck Sharp & Dohme LLC, priority 2016, dated 2023):

What follows are molecules tested on asexual P. falciparum 3D7 parasites (assay: P. falciparum growth inhibition assay measuring LDH activity (Assay 1)). Conditions: 3D7 strain, parasitized red blood cells, 72 h incubation, LDH activity read by absorbance at 650 nm.
Type: cell-based
Experimental: A modified version of the assay described in Gamo, F. J., Sanz, L. M., Vidal, J., de Cozar, C., Alvarez, E., Lavandera, J. L., Vanderwall, D. E., Green, D. V., Kumar, V., Hasan, S., Brown, J. R., Peishoff, C. E., Cardon, L. R., Garcia-Bustos, J. F., Nature, 465 (2010) 305-310 (Gamo et al.) was used to assess the activity of compounds against asexual P. falciparum 3D7 parasites. Compounds were pre-dispensed in 384-well plates, RPMI/AlbuMAX growth media was added and P. falciparum inoculated. Plates were incubated for 72 h and then frozen at −80° C. overnight. Lactate dehydrogenase (LDH) activity was quantified with the modified cofactor 3-acetylpyridine adenine dinucleotide (APAD) (Sigma Aldrich) by measuring absorbance of the tetrazolium indicator nitro blue tetrazolium (NBT) (Sigma Aldrich) at 650 nm.
An inoculum of synchronous P. falciparum (3D7 strain) parasitized red blood cells (PRBC) at 0.7% parasitaemia and 2% haematocrit in RPMI-1640, 5% AlbuMAX, 2% D-sucrose, 0.3% glutamine and 150 μM hypoxanthine was used for the assay.
Compound master plates (384-well) were prepared by a 10 pt serial dilution of compounds, from 1 mM to 50.8 nM, in columns 3-12 and 13-22. DMSO was dispensed into columns 1 and 23 of the compound master plate to be used as the positive growth control (100% viability). […] Intermediate compound dilution plates were prepared by dispensing 1 μl from each well of the compound master plate into 11.5 μl of RPMI/AlbuMAX growth media. Duplicate assay plates (384-well) were then prepared by dispensing 0.5 μL of compound from the intermediate dilution plates into 9.5 μl of RPMI/AlbuMAX growth media. The parasite inoculum (30 μL) was dispensed into the assay plates containing compounds using a Multidrop dispenser (Thermo Scientific) such that the final assay volume was 40 μL and final compound concentration was 1 μM-0.05 nM (the volume of compound addition can be adjusted to the preferred and agreed screening concentration). The final DMSO concentration was 0.1% (ideally 0.2% to limit toxicity to parasites), but this is dependent on volume of compound DMSO stock solution that can be supplied. Plates were incubated at 37° C. for 72 h in an atmosphere of 5% CO2, 5% O2, […].
After 72 h of incubation, plates were frozen at −80° C. overnight and then thawed at room temperature for at least 4 h. To evaluate LDH activity, 45 μL of freshly made reaction mix (174 mM sodium L-lactate (Sigma Aldrich), 214 μM 3-acetyl pyridine adenine dinucleotide (APAD) (Sigma Aldrich), 270 μM nitro blue tetrazolium chloride (NBT) (Sigma Aldrich), 4.35 U/mL diaphorase (from Clostridium kluyveri) (Sigma Aldrich), 0.7% Tween 20, 100 mM Tris-HCl pH 7.5) was dispensed using a Multidrop dispenser (Thermo Scientific). Plates were shaken to ensure mixing and absorbance at 650 nm was monitored using a Perkin Elmer Envision plate reader after 30 min of incubation at room temperature. Data were normalized to percent growth inhibition using positive and negative controls, and analysed using TIBCO Spotfire software. […]
In the case of `C[C@H](NC(=O)c1cccc(C(c2ccccc2)N2C(=N)NC(C)(C)CC2=O)c1)c1ccccc1` (single isomer, unassigned) [Compound 27], the IC50 is reported as 14 nM. With `C[C@H](NC(=O)c1cccc(C(c2ccccc2)N2C(=N)NC(C)(C)CC2=O)c1)c1ccccc1` (single isomer, unassigned) [Compound 28] the IC50 was > 1000 nM. With `CC(C)[C@]1(C)CC(=O)N(C(c2ccccc2)c2cccc(C(=O)N[C@@H](C)c3ccccc3)c2)C(=N)N1` (stereo partly shown) [Compound 1] the IC50 was 3 nM. Work on `CC(C)[C@]1(C)CC(=O)N(Cc2cc(F)cc(C(=O)NC(CCN(C)C)c3ccccc3)c2)C(=N)N1` (stereo partly shown) [Compound 34] yielded an IC50 of 310 nM. `CC(C)[C@]1(C)CC(=O)N(C(c2ccccc2)c2cccc(C(=O)N[C@@H](C)c3ccccc3)c2)C(=N)N1` (stereo partly shown) [Compound 55] was tested, and the IC50 was 3.5 nM. `CC(C)[C@]1(C)CC(=O)N(C(c2ccccc2)c2cccc(C(=O)N[C@@H](C)c3ccccc3)c2)C(=N)N1` (stereo partly shown) [Compound 56] gave an IC50 of 360 nM.

Same assay, conditions: Plasmodium falciparum, 3D7, Erythrocyte, 72 h, 3D7 strain, parasitized red blood cells, 72 h incubation, LDH activity read by absorbance at 650 nm
Work on `CC(C)CC(c1ccc(C(F)(F)F)c(C(=O)N2Cc3nccnc3C2)c1)N1C(=N)N[C@](CC2CC2)(c2ccccc2)CC1=O` (stereo partly shown) [Compound 2] yielded an IC50 of 1.3 nM. Work on `CC(C)[C@]1(C)CC(=O)N(Cc2ccc(C(=O)N[C@@H](C)c3cccc(F)c3)s2)C(=N)N1` [Compound 3] yielded an IC50 of 1.37 nM. `CC(C)[C@]1(C)CC(=O)N(Cc2cc(F)cc(C(=O)N[C@H]3CCCc4ccccc43)c2)C(=N)N1` [Compound 4] was tested, and the IC50 was 1.68 nM. Work on `COCC[C@H](NC(=O)c1cc(Cl)cc(CN2C(=N)N[C@](C)(C(C)C)CC2=O)c1)c1ccccc1` [Compound 5] yielded an IC50 of 2.53 nM. `CC(C)[C@]1(C)CC(=O)N(Cc2cc(F)cc(C(=O)N[C@H]3CCc4ccccc43)c2)C(=N)N1` [Compound 6] was tested, and the IC50 was 2.92 nM. `N=C1N[C@](CC2CC2)(c2ccccc2)CC(=O)N1Cc1ccc(-c2ccncc2)c(C(=O)N2Cc3nccnc3C2)c1` [Compound 7] showed an IC50 of 3.27 nM. `N=C1N[C@](CC2CC2)(c2ccccc2)CC(=O)N1Cc1ccc(-c2ccccc2)c(C(=O)N2Cc3nccnc3C2)c1` [Compound 8] was tested, and the IC50 was 3.42 nM. In the case of `COCC[C@H](NC(=O)c1cc(F)cc(CN2C(=N)NC3(CCCC3)CC2=O)c1)c1ccccc1` [Compound 9], the IC50 is reported as 4.19 nM. Molecule `COCC[C@H](NC(=O)c1cccc(CN2C(=N)N[C@](C)(C(C)C)CC2=O)c1)c1ccccc1` [Compound 10] has an IC50 of 5.34 nM. With `COCC[C@H](NC(=O)c1cc(F)cc(CN2C(=N)N[C@](C)(C(C)C)CC2=O)c1)c1ccccc1` [Compound 11] the IC50 was 5.67 nM. Molecule `N=C1N[C@](CC2CC2)(c2ccccc2)CC(=O)N1Cc1ccc(Br)c(C(=O)N2Cc3nccnc3C2)c1` [Compound 12] has an IC50 of 6.01 nM. Work on `CC(C)[C@]1(C)CC(=O)N([C@H](C)c2cc(F)cc(C(=O)N[C@@H](C)c3ccccc3)c2)C(=N)N1` [Compound 13] yielded an IC50 of 6.43 nM. Molecule `COCCC[C@H](NC(=O)c1cc(F)cc(CN2C(=N)N[C@](C)(C(C)C)CC2=O)c1)c1ccccc1` [Compound 14] has an IC50 of 6.62 nM. In the case of `CC(C)[C@]1(C)CC(=O)N(Cc2cccc(N3C[C@@H](c4ccccc4)CC3=O)c2)C(=N)N1` [Compound 15], the IC50 is reported as 7.74 nM. `CC(C)[C@]1(C)CC(=O)N([C@H](C)c2cccc(N3C[C@@H](c4ccccc4)CC3=O)c2)C(=N)N1` [Compound 16] was tested, and the IC50 was 8.06 nM. `COCC[C@H](NC(=O)c1cc(F)cc(CN2C(=N)N[C@](C)(C(C)C)CC2=O)c1)c1ccc(F)cc1` [Compound 17] gave an IC50 of 10.6 nM. `CC(C)[C@]1(C)CC(=O)N(Cc2cc(C(=O)N[C@@H](C)c3ccccc3)ccc2F)C(=N)N1` [Compound 18] showed an IC50 of 12.9 nM. For `CC(C)[C@]1(C)CC(=O)N(Cc2cc(F)cc(C(=O)NC3CCCCCC3)c2)C(=N)N1` [Compound 19], the IC50 was 14 nM. For `CC(C)[C@]1(C)CC(=O)N([C@H](C)c2cccc(N3C[C@H](c4ccccc4)CC3=O)c2)C(=N)N1` [Compound 20], the IC50 was 14 nM. In the case of `CC(C)[C@]1(C)CC(=O)N([C@H](C)c2cccc(C(=O)N[C@@H](C)c3cccc(Cl)c3)c2)C(=N)N1` [Compound 21], the IC50 is reported as 19.9 nM. In the case of `N=C1N[C@](CC2CC2)(c2ccccc2)CC(=O)N1Cc1ccc(C(F)(F)F)c(C(=O)N2CCn3c(nnc3C(F)(F)F)C2)c1` [Compound 22], the IC50 is reported as 27.2 nM. `CC(C)[C@]1(C)CC(=O)N(Cc2cc(F)cc(C(=O)N[C@H](C)c3ccccc3)c2)C(=N)N1` [Compound 23] was tested, and the IC50 was 33 nM. `CC(C)[C@]1(C)CC(=O)N(Cc2cc(F)cc(C(=O)N[C@@H](C)c3ccccc3)c2)C(=N)N1` [Compound 24] gave an IC50 of 48.8 nM. In the case of `C[C@@]1(c2c(F)cc(F)cc2F)CC(=O)N(Cc2cccc(C(=O)N3Cc4ccccc4C3)c2)C(=N)N1` [Compound 25], the IC50 is reported as 139 nM. `CC(C)[C@]1(C)CC(=O)N([C@@H](C)c2cccc(N3C[C@H](c4ccccc4)CC3=O)c2)C(=N)N1` [Compound 26] gave an IC50 of 371 nM. `CCC1(CC)CC(=O)N(Cc2cc(F)cc(C(=O)N(C)[C@@H](C)c3ccccc3)c2)C(=N)N1` [Compound 29] was tested, and the IC50 was 870 nM. `CC(C)[C@]1(C)CC(=O)N(Cc2cc(F)cc(C(=O)NC(CCN(C)C)c3ccccc3)c2)C(=N)N1` (stereo partly shown) [Compound 30] gave an IC50 of 260 nM. `CCC1(CC)CC(=O)N(Cc2cc(F)cc(C(=O)N[C@@H](C)c3ccccc3)c2)C(=N)N1` [Compound 31] was tested, and the IC50 was 94 nM. In the case of `C[C@H](NC(=O)c1cc(F)cc(CN2C(=N)NC3(CCCC3)CC2=O)c1)c1ccccc1` [Compound 32], the IC50 is reported as 500 nM. For `C[C@H](NC(=O)c1cc(F)cc(CN2C(=N)NC3(CCCCC3)CC2=O)c1)c1ccccc1` [Compound 33], the IC50 was 260 nM. `CC(C)[C@]1(C)CC(=O)N(Cc2cc(F)cc(C(=O)N3Cc4ccccc4C3)c2)C(=N)N1` [Compound 35] gave an IC50 of 390 nM. `C[C@H](NC(=O)c1cc(F)cc(CN2C(=N)N[C@@](C)(c3ccccc3)CC2=O)c1)c1ccccc1` [Compound 36] showed an IC50 of 130 nM. In the case of `C[C@H](NC(=O)c1cc(F)cc(CN2C(=N)NC3(CCC(C)(C)CC3)CC2=O)c1)c1ccccc1` [Compound 37], the IC50 is reported as 620 nM. For `C[C@H](NC(=O)c1cc(F)cc(CN2C(=N)NC(c3ccccc3)(c3ccccc3)CC2=O)c1)c1ccccc1` [Compound 38], the IC50 was 570 nM. For `C[C@H](NC(=O)c1cc(F)cc(CN2C(=N)NC3(CCC3)CC2=O)c1)c1ccccc1` [Compound 39], the IC50 was 1000 nM. In the case of `CC(C)[C@]1(C)CC(=O)N(Cc2ccc(C(=O)N[C@@H](C)c3ccccc3)cc2)C(=N)N1` [Compound 40], the IC50 is reported as 630 nM. `CC(C)[C@]1(C)CC(=O)N(Cc2ccc(C(=O)NCc3ccccc3F)cc2)C(=N)N1` [Compound 41] showed an IC50 of 430 nM. `CC(C)[C@]1(C)CC(=O)N(Cc2ccc(C(=O)NCc3cccc(F)c3)cc2)C(=N)N1` [Compound 42] was tested, and the IC50 was 480 nM. Work on `CC(C)[C@]1(C)CC(=O)N(Cc2ccc(C(=O)NCc3ccc(F)cc3)cc2)C(=N)N1` [Compound 43] yielded an IC50 of 860 nM. Work on `Cc1ccccc1CNC(=O)c1ccc(CN2C(=N)N[C@](C)(C(C)C)CC2=O)cc1` [Compound 44] yielded an IC50 of 320 nM. Molecule `Cc1cccc(CNC(=O)c2ccc(CN3C(=N)N[C@](C)(C(C)C)CC3=O)cc2)c1` [Compound 45] has an IC50 of 810 nM. `Cc1ccc(CNC(=O)c2ccc(CN3C(=N)N[C@](C)(C(C)C)CC3=O)cc2)cc1` [Compound 46] gave an IC50 of 550 nM. `CC(C)[C@]1(C)CC(=O)N(Cc2ccc(C(=O)N3Cc4ccccc4C3)cc2)C(=N)N1` [Compound 47] showed an IC50 of 490 nM. `C[C@H](NC(=O)c1cc(F)cc(CN2C(=N)NCC(c3ccccc3)C2=O)c1)c1ccccc1` (stereo partly shown) [Compound 49] was tested, and the IC50 was 770 nM. In the case of `CCC1(CC)CC(=O)N(Cc2cc(F)cc(C(=O)N3Cc4ccccc4C3)c2)C(=N)N1` [Compound 50], the IC50 is reported as 610 nM. `CC(C)[C@]1(C)CC(=O)N(C(c2ccccc2)c2cccc(C(=O)N3Cc4ccccc4C3)c2)C(=N)N1` (stereo partly shown) [Compound 51] was tested, and the IC50 was 49 nM. With `CC(C)[C@]1(C)CC(=O)N(C(c2ccccc2)c2cccc(C(=O)N3Cc4nccnc4C3)c2)C(=N)N1` (stereo partly shown) [Compound 52] the IC50 was 270 nM. Molecule `CCC1(CC)CC(=O)N(Cc2cc(F)cc(C(=O)N3Cc4nccnc4C3)c2)C(=N)N1` [Compound 53] has an IC50 of 870 nM. Work on `CC1(C)CC(=O)N(C(c2ccccc2)c2cccc(C(=O)N3Cc4ccccc4C3)c2)C(=N)N1` (stereo not shown) [Compound 54] yielded an IC50 of 390 nM.
